Source: ChEMBL document CHEMBL1201861, “Genomics of Drug Sensitity in Cancer screening data, Wellcome Trust Sanger Institute”

Key:
EB2 = experiment: cells; type: functional, cell-based, Homo sapiens; conditions: Homo sapiens, EB2;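 note: growth inhibition of EB2 cells, read out with a cell viability assay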
Description: SANGER: Inhibition of human EB2 cell growth in a cell viability assay.

EVSA-T = experiment: cells; type: functional, cell-based, Homo sapiens; conditions: Homo sapiens, EVSA-T;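 note: growth inhibition of EVSA-T cells, read out with a cell viability assay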
Description: SANGER: Inhibition of human EVSA-T cell growth in a cell viability assay.

IM-9 = experiment: SANGER: Inhibition of human IM-9 cell growth in a cell viability assay.; type: functional, cell-based; conditions: Homo sapiens, IM-9
IMR-5 = experiment: cells; type: functional, cell-based, Homo sapiens; conditions: Homo sapiens, IMR-5;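 note: growth inhibition of human IMR-5 cells, read out with a cell viability assay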
Description: SANGER: Inhibition of human IMR-5 cell growth in a cell viability assay.

LC4-1 = experiment: cells; type: functional, cell-based, Homo sapiens; conditions: Homo sapiens, LC4-1;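 note: growth inhibition of LC4-1 cells, read out with a cell viability assay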
Description: SANGER: Inhibition of human LC4-1 cell growth in a cell viability assay.

LP-1 = experiment: cells; type: functional, cell-based, Homo sapiens; conditions: Homo sapiens, LP-1;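 note: growth inhibition of human LP-1 cells, with the read-out taken from a cell viability assay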
Description: SANGER: Inhibition of human LP-1 cell growth in a cell viability assay.

NCI-H2141 = experiment: cells; type: functional, cell-based, Homo sapiens; conditions: Homo sapiens, NCI-H2141;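 note: growth inhibition of human NCI-H2141 cells, read out with a cell viability assay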
Description: SANGER: Inhibition of human NCI-H2141 cell growth in a cell viability assay.

RPMI 8402 = experiment: SANGER: Inhibition of human RPMI-8402 cell growth in a cell viability assay.; type: functional, cell-based; conditions: Homo sapiens, RPMI 8402
SNU-C1 = experiment: cells; type: functional, cell-based, Homo sapiens; conditions: Homo sapiens, SNU-C1;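 note: growth inhibition of SNU-C1 human cells, read out by a cell viability assay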
Description: SANGER: Inhibition of human SNU-C1 cell growth in a cell viability assay.

TALL-1 = experiment: cells; type: functional, cell-based, Homo sapiens; conditions: Homo sapiens, TALL-1;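 note: growth inhibition of cultured human TALL-1 cells, read out by a cell viability assay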
Description: SANGER: Inhibition of human TALL-1 cell growth in a cell viability assay.

BL-70 = experiment: SANGER: Inhibition of human BL-70 cell growth in a cell viability assay.; type: functional, cell-based; conditions: Homo sapiens, BL-70
YT = experiment: cells; type: functional, cell-based, Homo sapiens; conditions: Homo sapiens, YT
Description: SANGER: Inhibition of human YT cell growth in a cell viability assay.

Daoy = experiment: cells; type: functional, cell-based, Homo sapiens; conditions: Homo sapiens, Daoy;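 note: daoy cell growth inhibition, read out as cell viability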
Description: SANGER: Inhibition of human Daoy cell growth in a cell viability assay.

DoTc2-4510 = experiment: cells; type: functional, cell-based, Homo sapiens; conditions: Homo sapiens, DoTc2-4510
ESS-1 = experiment: cells; type: functional, cell-based, Homo sapiens; conditions: Homo sapiens, ESS-1;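 note: growth inhibition of human ESS-1 cells, read out by a cell viability assay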
Description: SANGER: Inhibition of human ESS-1 cell growth in a cell viability assay.

HCC70 = experiment: cells; type: functional, cell-based, Homo sapiens; conditions: Homo sapiens, HCC70;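 note: cell viability assay measuring how strongly the compound suppresses proliferation of HCC70 cells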
Description: SANGER: Inhibition of human HCC70 cell growth in a cell viability assay.

HT55 = experiment: cells; type: functional, cell-based, Homo sapiens; conditions: Homo sapiens, HT55;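 note: cell viability readout measuring growth inhibition of human HT55 cells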
Description: SANGER: Inhibition of human HT55 cell growth in a cell viability assay.

HTC-C3 = experiment: cells; type: functional, cell-based, Homo sapiens; conditions: Homo sapiens, HTC-C3;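 note: inhibition of cell growth, read out with a cell viability assay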
Description: SANGER: Inhibition of human HTC-C3 cell growth in a cell viability assay.

HuP-T3 = experiment: cells; type: functional, cell-based, Homo sapiens; conditions: Homo sapiens, HuP-T3;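 note: HuP-T3 cell growth inhibition, read out with a cell viability assay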
Description: SANGER: Inhibition of human HuP-T3 cell growth in a cell viability assay.

KOSC-2 = experiment: cells; type: functional, cell-based, Homo sapiens; conditions: Homo sapiens, KOSC-2;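 note: growth inhibition of KOSC-2 cells, read out by a cell viability assay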
Description: SANGER: Inhibition of human KOSC-2 cell growth in a cell viability assay.

KYSE-450 = experiment: cells; type: functional, cell-based, Homo sapiens; conditions: Homo sapiens, KYSE-450;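 note: cell growth inhibition measured by a viability assay in human KYSE-450 cells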
Description: SANGER: Inhibition of human KYSE-450 cell growth in a cell viability assay.

KYSE-520 cell line = experiment: cells; type: functional, cell-based, Homo sapiens; conditions: Homo sapiens, KYSE-520;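 note: growth inhibition of human KYSE-520 cells, read out with a viability assay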
Description: SANGER: Inhibition of human KYSE-520 cell growth in a cell viability assay.

LCLC-97TM1 = experiment: cells; type: functional, cell-based, Homo sapiens; conditions: Homo sapiens, LCLC-97TM1;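 note: cell viability assay measuring growth inhibition of human LCLC-97TM1 cells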
Description: SANGER: Inhibition of human LCLC-97TM1 cell growth in a cell viability assay.

MEL-HO = experiment: cells; type: functional, cell-based, Homo sapiens; conditions: Homo sapiens, MEL-HO
Description: SANGER: Inhibition of human MEL-HO cell growth in a cell viability assay.

MKN-45 = experiment: cells; type: functional, cell-based, Homo sapiens; conditions: Homo sapiens, MKN-45;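 note: growth inhibition of human MKN-45 cells, measured with a cell viability assay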
Description: SANGER: Inhibition of human MKN45 cell growth in a cell viability assay.

NCI-H292 = experiment: cells; type: functional, cell-based, Homo sapiens; conditions: Homo sapiens, NCI-H292;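 note: growth inhibition of NCI-H292 cells, read out with a cell viability assay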
Description: SANGER: Inhibition of human NCI-H292 cell growth in a cell viability assay.

NCI-H522 = experiment: cells; type: functional, cell-based, Homo sapiens; conditions: Homo sapiens, NCI-H522;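 note: cell viability assay measuring growth inhibition of human NCI-H522 cells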
Description: SANGER: Inhibition of human NCI-H522 cell growth in a cell viability assay.

NCI-H596 = experiment: cells; type: functional, cell-based, Homo sapiens; conditions: Homo sapiens, NCI-H596;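 note: growth inhibition of NCI-H596 cells, read out with a cell viability assay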
Description: SANGER: Inhibition of human NCI-H596 cell growth in a cell viability assay.

NCI-H810 = experiment: cells; type: functional, cell-based, Homo sapiens; conditions: Homo sapiens, NCI-H810;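 note: IC50 reflects inhibition of cancer cell line growth, read out with a cell viability assay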
Description: SANGER: Inhibition of human NCI-H810 cell growth in a cell viability assay.

OAW-28 = experiment: cells; type: functional, cell-based, Homo sapiens; conditions: Homo sapiens, OAW-28;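 note: growth inhibition of OAW-28 cells, read out with a cell viability assay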
Description: SANGER: Inhibition of human OAW-28 cell growth in a cell viability assay.

RERF-LC-MS = experiment: cells; type: functional, cell-based, Homo sapiens; conditions: Homo sapiens, RERF-LC-MS;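 note: growth inhibition of human RERF-LC-MS cells, read out by a cell viability assay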
Description: SANGER: Inhibition of human RERF-LC-MS cell growth in a cell viability assay.

SK-MEL-28 = experiment: cells; type: functional, cell-based, Homo sapiens; conditions: Homo sapiens, SK-MEL-28;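 note: growth inhibition of human SK-MEL-28 cells, read out with a cell viability assay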
Description: SANGER: Inhibition of human SK-MEL-28 cell growth in a cell viability assay.

SK-MEL3 = experiment: cells; type: functional, cell-based, Homo sapiens, SK-MEL-3; conditions: Homo sapiens, SK-MEL3;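 note: growth inhibition of human SK-MEL-3 cells, read out with a cell viability assay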
Description: SANGER: Inhibition of human SK-MEL-3 cell growth in a cell viability assay.

SK-N-AS = experiment: cells; type: functional, cell-based, Homo sapiens; conditions: Homo sapiens, SK-N-AS;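 note: growth inhibition of human SK-N-AS cells, measured with a cell viability assay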
Description: SANGER: Inhibition of human SK-N-AS cell growth in a cell viability assay.

SW1088 = experiment: cells; type: functional, cell-based, Homo sapiens; conditions: Homo sapiens, SW1088;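 note: growth inhibition of human SW1088 cells, read out by a cell viability assay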
Description: SANGER: Inhibition of human SW1088 cell growth in a cell viability assay.

SW-620 = experiment: cells; type: functional, cell-based, Homo sapiens; conditions: Homo sapiens, SW-620;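 note: growth inhibition of human SW-620 cells, measured by a cell viability assay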
Description: SANGER: Inhibition of human SW620 cell growth in a cell viability assay.

SW626 = experiment: cells; type: functional, cell-based, Homo sapiens; conditions: Homo sapiens, SW626;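 note: growth inhibition of SW626 cells, measured with a cell viability assay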
Description: SANGER: Inhibition of human SW626 cell growth in a cell viability assay.

8505C = experiment: cells; type: functional, cell-based, Homo sapiens; conditions: Homo sapiens, 8505C
Description: SANGER: Inhibition of human 8505C cell growth in a cell viability assay.

A-375 = experiment: cells; type: functional, cell-based, Homo sapiens; conditions: Homo sapiens, A-375;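 note: growth inhibition of A375 cells, read out with a cell viability assay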
Description: SANGER: Inhibition of human A375 cell growth in a cell viability assay.

A-427 = experiment: cells; type: functional, cell-based, Homo sapiens; conditions: Homo sapiens, A-427;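 note: growth inhibition of human A-427 cells, read out by a cell viability assay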
Description: SANGER: Inhibition of human A427 cell growth in a cell viability assay.

A673 = experiment: cells; type: functional, cell-based, Homo sapiens; conditions: Homo sapiens, A673;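 note: growth inhibition of human A673 cells, read out through a cell viability assay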
Description: SANGER: Inhibition of human A673 cell growth in a cell viability assay.

BCPAP = experiment: cells; type: functional, cell-based, Homo sapiens; conditions: Homo sapiens, BCPAP;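 note: growth inhibition of BCPAP cells, read out in a cell viability assay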
Description: SANGER: Inhibition of human BCPAP cell growth in a cell viability assay.

CAKI-1 = experiment: cells; type: functional, cell-based, Homo sapiens; conditions: Homo sapiens, CAKI-1;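 note: growth inhibition of CAKI-1 cells, measured by a cell viability assay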
Description: SANGER: Inhibition of human CAKI-1 cell growth in a cell viability assay.

CAL-33 = experiment: cells; type: functional, cell-based, Homo sapiens; conditions: Homo sapiens, CAL-33;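 note: growth inhibition of CAL-33 cells, read out with a cell viability assay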
Description: SANGER: Inhibition of human CAL-33 cell growth in a cell viability assay.

CAL-54 = experiment: cells; type: functional, cell-based, Homo sapiens; conditions: Homo sapiens, CAL-54;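 note: growth inhibition of CAL-54 cells, read out by a viability measurement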
Description: SANGER: Inhibition of human CAL-54 cell growth in a cell viability assay.

CHP-212 = experiment: cells; type: functional, cell-based, Homo sapiens; conditions: Homo sapiens, CHP-212
Description: SANGER: Inhibition of human CHP-212 cell growth in a cell viability assay.

COc1cc2ncn(-c3cc(OCc4ccccc4S(C)(=O)=O)c(C#N)s3)c2cc1OC [GSK-319347A]
IC50 (EB2): > 5 µM | IC50 (EVSA-T): > 5 µM | IC50 (IM-9): > 5 µM | IC50 (IMR-5): > 5 µM | IC50 (LC4-1): > 5 µM | IC50 (LP-1): > 5 µM | IC50 (NCI-H2141): > 5 µM | IC50 (RPMI 8402; read-out: IC50): > 5 µM | IC50 (SNU-C1): > 5 µM | IC50 (TALL-1): > 5 µM | IC50 (BL-70): > 5 µM | IC50 (YT): > 5 µM

CC[C@H](CO)Nc1nc(NCc2ccccc2)c2ncn(C(C)C)c2n1 [SELICICLIB]
IC50 (EB2): > 16 µM | IC50 (EVSA-T): > 16 µM | IC50 (IM-9): > 16 µM | IC50 (IMR-5): > 16 µM | IC50 (LC4-1): > 16 µM | IC50 (LP-1): > 16 µM | IC50 (NCI-H2141): > 16 µM | IC50 (RPMI 8402): 13.6 µM | IC50 (SNU-C1): > 16 µM | IC50 (TALL-1): > 16 µM | IC50 (BL-70): > 16 µM | IC50 (YT): > 16 µM

CC(=O)O[C@H]1C(=O)[C@@]2(C)[C@H]([C@H](OC(=O)c3ccccc3)[C@]3(O)C[C@H](OC(=O)[C@H](O)[C@@H](NC(=O)c4ccccc4)c4ccccc4)C(C)=C1C3(C)C)[C@]1(OC(C)=O)CO[C@@H]1C[C@@H]2O [PACLITAXEL]
IC50 (EB2): > 0.102 µM | IC50 (EVSA-T): 0.0392 µM | IC50 (IM-9): > 0.102 µM | IC50 (IMR-5): 0.0045 µM | IC50 (LC4-1): 0.0435 µM | IC50 (LP-1): > 0.102 µM | IC50 (NCI-H2141): 0.081 µM | IC50 (RPMI 8402; read-out: IC50): 0.0126 µM | IC50 (SNU-C1): > 0.102 µM | IC50 (TALL-1): 0.0504 µM | IC50 (BL-70): 0.0093 µM | IC50 (YT): > 0.102 µM

O=C(O)c1ccc(-c2c[nH]c3ncc(-c4ccccc4)cc23)cc1C1CCCC1 [GSK-650394]
IC50 (Daoy): 0.515 µM | IC50 (DoTc2-4510): > 16 µM | IC50 (EB2): > 16 µM | IC50 (ESS-1): > 16 µM | IC50 (EVSA-T): > 16 µM | IC50 (HCC70): > 16 µM | IC50 (HT55): > 16 µM | IC50 (HTC-C3): 10.7 µM | IC50 (HuP-T3): > 16 µM | IC50 (IM-9): > 16 µM | IC50 (IMR-5): 9.19 µM | IC50 (KOSC-2): > 16 µM | IC50 (KYSE-450): 5.6 µM | IC50 (KYSE-520 cell line): > 16 µM | IC50 (LC4-1): > 16 µM | IC50 (LCLC-97TM1): 1.37 µM | IC50 (LP-1): > 16 µM | IC50 (MEL-HO): > 16 µM | IC50 (MKN-45): > 16 µM | IC50 (NCI-H2141): > 16 µM | IC50 (NCI-H292): > 16 µM | IC50 (NCI-H522): 13 µM | IC50 (NCI-H596): > 16 µM | IC50 (NCI-H810): > 16 µM | IC50 (OAW-28): > 16 µM | IC50 (RERF-LC-MS): > 16 µM | IC50 (RPMI 8402; read-out: IC50): > 16 µM | IC50 (SK-MEL-28): > 16 µM | IC50 (SK-MEL3): > 16 µM | IC50 (SK-N-AS): > 16 µM | IC50 (SNU-C1): > 16 µM | IC50 (SW1088): > 16 µM | IC50 (SW-620): 1.93 µM | IC50 (SW626): > 16 µM | IC50 (TALL-1): > 16 µM | IC50 (8505C): 7.78 µM | IC50 (A-375): 5.25 µM | IC50 (A-427): 1.88 µM | IC50 (A673): > 16 µM | IC50 (BCPAP): 13 µM | IC50 (BL-70): > 16 µM | IC50 (CAKI-1): > 16 µM | IC50 (CAL-33): 9.96 µM | IC50 (CAL-54): > 16 µM | IC50 (YT): 9.9 µM | IC50 (CHP-212): > 16 µM

CCN(CC)CCNC(=O)c1c(C)[nH]c(/C=C2\C(=O)Nc3ccc(F)cc32)c1C [SUNITINIB]
IC50 (EB2): > 8 µM | IC50 (EVSA-T): > 8 µM | IC50 (IM-9): > 8 µM | IC50 (IMR-5): 7.55 µM | IC50 (LC4-1): 4.38 µM | IC50 (LP-1): > 8 µM | IC50 (NCI-H2141): > 8 µM | IC50 (RPMI 8402; read-out: IC50): 2.34 µM | IC50 (SNU-C1): > 8 µM | IC50 (TALL-1): > 8 µM | IC50 (BL-70): 1.12 µM | IC50 (YT): > 8 µM

Cc1ccc(-c2c(C(=O)CCl)n(CCCO)c3ncnc(N)c23)cc1
IC50 (EB2): > 4 µM | IC50 (EVSA-T): 2.4 µM | IC50 (IM-9): > 4 µM | IC50 (IMR-5): > 4 µM | IC50 (LC4-1): > 4 µM | IC50 (LP-1): > 4 µM | IC50 (NCI-H2141): > 4 µM | IC50 (RPMI 8402; read-out: IC50): > 4 µM | IC50 (SNU-C1): > 4 µM | IC50 (TALL-1): > 4 µM | IC50 (BL-70): > 4 µM | IC50 (YT): > 4 µM
